29 compounds from patent US20230122249A1, “1H-PYRAZOLO[4,3-d]PYRIMIDINE COMPOUNDS AS TOLL-LIKE RECEPTOR 7 (TLR7) AGONISTS” (BRISTOL-MYERS SQUIBB COMPANY, priority 2020, published 2023) can be followed below.

For one assay, the target named is T1, human TLR7 (Homo sapiens, UniProt Q9NYK1).
T1 construct: host or cells: HEK-Blue TLR7 cells (engineered human embryonic kidney cells)
T1 sequence (Q9NYK1 27-1049): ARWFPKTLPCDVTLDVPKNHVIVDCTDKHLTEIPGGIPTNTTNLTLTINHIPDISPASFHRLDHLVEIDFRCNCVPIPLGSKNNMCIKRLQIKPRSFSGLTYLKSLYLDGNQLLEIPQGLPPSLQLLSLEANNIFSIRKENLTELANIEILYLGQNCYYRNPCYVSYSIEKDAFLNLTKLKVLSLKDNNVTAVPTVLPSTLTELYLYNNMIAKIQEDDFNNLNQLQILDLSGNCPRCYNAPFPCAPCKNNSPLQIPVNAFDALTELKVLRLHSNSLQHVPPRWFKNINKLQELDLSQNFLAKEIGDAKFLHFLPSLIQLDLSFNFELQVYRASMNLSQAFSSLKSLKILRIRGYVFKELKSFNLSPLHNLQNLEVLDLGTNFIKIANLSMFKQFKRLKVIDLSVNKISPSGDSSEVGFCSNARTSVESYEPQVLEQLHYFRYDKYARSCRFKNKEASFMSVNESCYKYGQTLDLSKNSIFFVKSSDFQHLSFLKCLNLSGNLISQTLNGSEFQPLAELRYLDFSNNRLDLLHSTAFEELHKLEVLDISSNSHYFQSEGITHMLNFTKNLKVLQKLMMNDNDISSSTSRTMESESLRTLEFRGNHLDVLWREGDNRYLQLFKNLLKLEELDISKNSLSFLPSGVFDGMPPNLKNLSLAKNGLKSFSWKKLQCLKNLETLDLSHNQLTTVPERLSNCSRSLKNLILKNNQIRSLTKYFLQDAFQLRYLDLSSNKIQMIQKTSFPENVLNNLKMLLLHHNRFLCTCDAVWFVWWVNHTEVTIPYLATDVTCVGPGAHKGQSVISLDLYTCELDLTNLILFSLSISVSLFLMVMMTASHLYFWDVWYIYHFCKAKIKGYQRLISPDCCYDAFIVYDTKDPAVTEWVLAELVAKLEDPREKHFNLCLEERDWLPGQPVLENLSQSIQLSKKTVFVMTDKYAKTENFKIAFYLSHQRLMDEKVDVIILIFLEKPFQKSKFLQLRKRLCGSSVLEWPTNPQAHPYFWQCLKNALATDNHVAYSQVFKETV
Kind of assay: Human TLR7 agonist activity (hTLR7 reporter) assay in HEK-Blue TLR7 cells, SEAP readout. The assay is classed as cell-based. The following applies: 18 h treatment, average where assay repeated. In a few lines: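 HEK-Blue TLR7 cells (15,000/well) treated with compound for 18 h at 37 °C, 5% CO2. Secreted SEAP measured with Quanti-Blue, 30 min, OD 620 nm. EC50 taken as concentration giving half-maximal response between baseline and maximum.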

The test system of assay [1] is CD69 in human whole blood. Kind of assay: Induction of CD69 in human whole blood (hWB). The class given is cell-based. As to conditions: heparinized human whole blood, 17 h, CD69 surface staining; 100% set to 1 uM resiquimod; average where assay repeated. The essentials: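 hWB stimulated with compound at 1 uM final (1 mM stock), 37° C o/n (17 hrs). Surface CD69-PE staining with CD14/CD19 gating, fix/lysis, then flow cytometry read. IC50 curves with 100% set to 1 uM resiquimod.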

A word on the EC50: it is the concentration at which the effect is half-maximal. In the case of `CCC[C@@H](CCO)Nc1nc(N)nc2c(C)nn(Cc3ccc(CN4CC5(CNC5)C4)cc3OC)c12` [Compound 246], the EC50 on human TLR7 was 180 nM; in assay [1], 11.1 nM.

With `COc1cc(C(=O)N2CC3(CN(C)C3)C2)ccc1Cn1ncc2nc(N)nc(NCc3noc(C)n3)c21` [Compound 247], the concentration giving a half-maximal response (EC50) was 197 nM on human TLR7 and 37.1 nM in assay [1].

Turning to `COc1cc(C(=O)N2CC3(C2)CN(C(C)C)C3)ccc1Cn1ncc2nc(N)nc(NCc3noc(C)n3)c21` [Compound 248], the EC50 at human TLR7 is 73 nM; in assay [1], 25.4 nM.

As to `CCC[C@@H](CCO)Nc1nc(N)nc2cnn(Cc3ccc(CN4CC5(CN(CC)C5)C4)cc3OC)c12` [Compound 249], the half-maximal effective concentration (EC50) turned out to be 55.6 nM on human TLR7 and 1.6 nM in assay [1].

For `CCC[C@@H](CCO)Nc1nc(N)nc2cnn(Cc3ncc(C4CC5(C4)CN(C4CCOCC4)C5)cc3OC)c12` [Compound 250], the concentration for a half-maximal effect (EC50) came out at 45.3 nM at human TLR7 and 1.1 nM in assay [1].

`CCC[C@@H](CCO)Nc1nc(N)nc2cnn(Cc3ncc(C4CC5(C4)CN(C(C)C)C5)cc3OC)c12` [Compound 251]: the half-maximal effective concentration (EC50) is 134 nM at human TLR7 and 1.8 nM in assay [1].

In the case of `CCC[C@@H](CCO)Nc1nc(N)nc2cnn(Cc3ccc(CN4CC5(C4)CN(CC4CCC4)C5)cc3OC)c12` [Compound 252], the half-maximal effective concentration (EC50) at human TLR7 was found to be 6.1 nM; in assay [1], 0.4 nM.

On to `CCC[C@@H](CCO)Nc1nc(N)nc2cnn(Cc3ccc(CN4CC5(C4)CN(CC4CC4)C5)cc3OC)c12` [Compound 253], for which the EC50 on human TLR7 is 14.5 nM; in assay [1], 1.3 nM.

In the case of `COc1cc(CN2CC3(C2)CS(=O)(=O)C3)ccc1Cn1ncc2nc(N)nc(NCc3noc(C)n3)c21` [Compound 254], the EC50 at human TLR7 is 244 nM; in assay [1], 18.7 nM.

On to `CCCCNc1nc(N)nc2cnn(Cc3ccc(CN4CCC5(CC4)CNC5)cc3OC)c12` [Compound 255], for which the EC50 turned out to be 175 nM at human TLR7 and 5.7 nM in assay [1].

As to `CCCCNc1nc(N)nc2cnn(Cc3ccc(CN4CC5(CCNCC5)C4)cc3OC)c12` [Compound 256], the concentration for a half-maximal effect (EC50) at human TLR7 turned out to be 267 nM; in assay [1], 10.7 nM.

For `CCCCNc1nc(N)nc2cnn(Cc3ccc(CN4CC5(CCNC5)C4)cc3OC)c12` [Compound 257], the values for the half-maximal effective concentration (EC50) (on human TLR7; in assay [1]) were 198 nM and 4.8 nM, respectively.

Regarding `CCCCNc1nc(N)nc2cnn(Cc3ccc(CN4CCC5(CNC5)C4)cc3OC)c12` [Compound 258], the concentration for a half-maximal effect (EC50) at human TLR7 came to 147 nM; in assay [1] it was 6.5 nM.

For `CCCCNc1nc(N)nc2cnn(Cc3ccc(CN4CCC5(CC4)CN(CCO)C5)cc3OC)c12` [Compound 259], the EC50 on human TLR7 stood at 62.5 nM; in assay [1], 13.6 nM.

`CCCCNc1nc(N)nc2cnn(Cc3ccc(CN4CC5(CCN(CCO)C5)C4)cc3OC)c12` [Compound 261]: the figures for the concentration giving a half-maximal response (EC50) (on human TLR7; in assay [1]) were 120 nM and 8 nM, respectively.

In the case of `CCCCNc1nc(N)nc2cnn(Cc3ccc(CN4CCC5(C4)CN(CCO)C5)cc3OC)c12` [Compound 262], the EC50 was 64.5 nM on human TLR7 and 4.4 nM in assay [1].

For `COc1cc(CN2CC3(C2)CN(C(C)C)C3)ccc1Cn1ncc2nc(N)nc(NCc3noc(C)n3)c21` [Compound 263], the concentration giving a half-maximal response (EC50) on human TLR7 worked out at 68.7 nM; in assay [1], 12.7 nM.

`COc1cc(CN2CC3(C2)CN(C(C)=O)C3)ccc1Cn1ncc2nc(N)nc(NCc3noc(C)n3)c21` [Compound 264]: the figures for the EC50 (on human TLR7; in assay [1]) were 916 nM and 78.2 nM, respectively.

With `CCCCNc1nc(N)nc2cnn(Cc3ccc(CN4CCC5(CCNC5)C4)cc3OC)c12` (stereo not shown) [Compound 265], the EC50 on human TLR7 was 177 nM; in assay [1], 33.1 nM.

`CCCCNc1nc(N)nc2cnn(Cc3ccc(CN4CCC5(CCNCC5)CC4)cc3OC)c12` [Compound 266]: the concentration for a half-maximal effect (EC50) turned out to be 141 nM at human TLR7 and 9.3 nM in assay [1].

Regarding `CCCCNc1nc(N)nc2cnn(Cc3ccc(CN4CCC5(CCN(CCO)C5)C4)cc3OC)c12` (stereo not shown) [Compound 267], the EC50 came out at 58.5 nM at human TLR7 and 1.3 nM in assay [1].

Take `CCC[C@@H](CCO)Nc1nc(N)nc2c(C)nn(Cc3ccc(CNC4CC5(C4)CN(C)C5)cc3OC)c12` [Compound 269]: the EC50 at human TLR7 was 69.9 nM; in assay [1], 3.7 nM.

With `CCC[C@@H](CCO)Nc1nc(N)nc2cnn(Cc3ncc(C4CC5(CCN(C6CCOCC6)CC5)C4)cc3OC)c12` [Compound 270], the concentration giving a half-maximal response (EC50) at human TLR7 is 11.5 nM; in assay [1] it was 0.2 nM.

Take `CCC[C@@H](CCO)Nc1nc(N)nc2cnn(Cc3ncc(C4CCC5(CC4)CN(C4CCOCC4)C5)cc3OC)c12` [Compound 271]: the results for the EC50 (on human TLR7; in assay [1]) were 13.3 nM and 0.6 nM, respectively.

As for `CCC[C@@H](CCO)Nc1nc(N)nc2cnn(Cc3ncc(C4=CC5(CCNCC5)C4)cc3OC)c12` [Compound 272, (3S)-3-({5-amino-1-[(5-{7-azaspiro[3.5]non-1-en-2-yl}-3-methoxypyridin-2-yl)methyl]-1H-pyrazolo[4,3-d]pyrimidin-7-yl}amino)hexan-1-ol], the EC50 was found to be 668 nM at human TLR7 and 31.9 nM in assay [1].

For `CCC[C@@H](CCO)Nc1nc(N)nc2cnn(Cc3ncc(C4=CC5(CCN(C6CCOCC6)CC5)C4)cc3OC)c12` [Compound 273, (3S)-3-{[5-amino-1-({3-methoxy-5-[7-(oxan-4-yl)-7-azaspiro[3.5]non-1-en-2-yl]pyridin-2-yl}methyl)-1H-pyrazolo[4,3-d]pyrimidin-7-yl]amino}hexan-1-ol], the EC50 came out at 47.5 nM at human TLR7 and 1.5 nM in assay [1].

For the compound `CCC[C@@H](CCO)Nc1nc(N)nc2cnn(Cc3ncc(C4=CC5(CCN(C(C)C)CC5)C4)cc3OC)c12` [Compound 274], the EC50 was 82.3 nM on human TLR7 and 1.1 nM in assay [1].

As to `CCC[C@@H](CCO)Nc1nc(N)nc2cnn(Cc3ncc(C4=CC5(CCN(CC(C)C)CC5)C4)cc3OC)c12` [Compound 275], the results for the EC50 (at human TLR7; in assay [1]) were 11 nM and 1.2 nM, respectively.

With `CCC[C@@H](CCO)Nc1nc(N)nc2cnn(Cc3ncc(C4CCC5(CC4)CN(C(C)C)C5)cc3OC)c12` [Compound 277], the results for the EC50 (on human TLR7; in assay [1]) were 19.7 nM and 0.3 nM, respectively.
